Values joined by “and” are separate entries in the source; they are usually repeats but may differ in a detail not shown here. Identical values can stand only once. Inconclusive results and toxic doses are left out.
Tested on: P1534 leukemia ip, CD2F1 mice, survival T/C
Assay: NCI In Vivo Anticancer Drug Screen. Data for tumor model P1534 Leukemia (intraperitoneal) in CD2F1 (CDF1) mice
Conditions: higher = longer survival
Experimental: The antitumor activity of compounds was measured in mice bearing transplantable tumors. Survival or tumor size were measured and the results are expressed as the measurement made in the treated group (T) divided by the measurement made in the vehicle treated control group (C). The tumor model used in this assay is P1534 Leukemia (intraperitoneal) in CD2F1 (CDF1) mice

[1] = endpoint: mean survival time, dose: 1.25 mg/kg/injection, schedule: Q01DX010 (ip), vehicle: saline
[2] = endpoint: mean survival time, dose: 2.5 mg/kg/injection, schedule: Q01DX010 (ip), vehicle: saline
[3] = endpoint: mean survival time, dose: 5.0 mg/kg/injection, schedule: Q01DX010 (ip), vehicle: saline
[4] = endpoint: mean survival time, dose: 10.0 mg/kg/injection, schedule: Q01DX010 (ip), vehicle: saline
[5] = endpoint: mean survival time, dose: 6.25 mg/kg/injection, schedule: Q01DX010 (ip), vehicle: saline
[6] = endpoint: mean survival time, dose: 12.5 mg/kg/injection, schedule: Q01DX010 (ip), vehicle: saline
[7] = endpoint: mean survival time, dose: 25.0 mg/kg/injection, schedule: Q01DX010 (ip), vehicle: saline
[8] = endpoint: mean survival time, dose: 50.0 mg/kg/injection, schedule: Q01DX010 (ip), vehicle: saline
[9] = endpoint: mean survival time, dose: 100.0 mg/kg/injection, schedule: Q01DX010 (ip), vehicle: saline
[10] = endpoint: mean survival time, dose: 200.0 mg/kg/injection, schedule: Q01DX010 (ip), vehicle: saline
[11] = endpoint: mean survival time, dose: 8.0 mg/kg/injection, schedule: Q01DX010 (ip), vehicle: saline
[12] = endpoint: mean survival time, dose: 100.0 mg/kg/injection, schedule: Q01DX010 (ip), vehicle: water
[13] = endpoint: mean survival time, dose: 150.0 mg/kg/injection, schedule: Q01DX010 (ip), vehicle: water
[14] = endpoint: mean survival time, dose: 400.0 mg/kg/injection, schedule: Q01DX010 (ip), vehicle: saline

COc1cc2c(c(OC)c1OC)-c1ccc(OC)c(=O)cc1[C@@H](NC(C)=O)CC2
T/C (endpoint: mean survival time, dose: 0.04 mg/kg/injection, schedule: Q01DX010 (ip), vehicle: saline): 100 % of control | T/C (endpoint: mean survival time, dose: 0.05 mg/kg/injection, schedule: Q01DX010 (ip), vehicle: saline): 123 % of control | T/C (endpoint: mean survival time, dose: 0.06 mg/kg/injection, schedule: Q01DX010 (ip), vehicle: saline): 100 % of control | T/C (endpoint: mean survival time, dose: 0.12 mg/kg/injection, schedule: Q01DX010 (ip), vehicle: saline): 188 % of control | T/C (endpoint: mean survival time, dose: 0.18 mg/kg/injection, schedule: Q01DX010 (ip), vehicle: saline): 213 % of control | T/C (endpoint: mean survival time, dose: 0.2 mg/kg/injection, schedule: Q01DX015 (ip), vehicle: saline): 161 % of control | T/C (endpoint: mean survival time, dose: 0.2 mg/kg/injection, schedule: Q02DX008 (ip), vehicle: saline): 174 % of control | T/C (endpoint: mean survival time, dose: 0.27 mg/kg/injection, schedule: Q01DX010 (ip), vehicle: saline): 253 % of control | T/C (endpoint: mean survival time, dose: 0.3 mg/kg/injection, schedule: Q01DX015 (ip), vehicle: saline): 212 % of control | T/C (endpoint: mean survival time, dose: 0.3 mg/kg/injection, schedule: Q02DX008 (ip), vehicle: saline): 159 % of control | T/C (endpoint: mean survival time, dose: 0.45 mg/kg/injection, schedule: Q01DX015 (ip), vehicle: saline): 257 % of control | T/C (endpoint: mean survival time, dose: 0.45 mg/kg/injection, schedule: Q02DX008 (ip), vehicle: saline): 261 % of control | T/C (endpoint: mean survival time, dose: 0.67 mg/kg/injection, schedule: Q02DX008 (ip), vehicle: saline): 318 % of control | T/C (endpoint: mean survival time, dose: 0.9 mg/kg/injection, schedule: Q## X004 (ip), vehicle: saline): 348 % of control | T/C (endpoint: mean survival time, dose: 1.0 mg/kg/injection, schedule: Q02DX008 (ip), vehicle: saline): 304 % of control | T/C (endpoint: mean survival time, dose: 1.0 mg/kg/injection, schedule: Q## X032 (ip), vehicle: saline): 242 % of control | T/C (endpoint: mean survival time, dose: 1.1 mg/kg/injection, schedule: Q01DX001 (ip), vehicle: saline): 255 % of control | T/C (endpoint: mean survival time, dose: 1.3 mg/kg/injection, schedule: Q## X004 (ip), vehicle: saline): 328 % of control | T/C (endpoint: mean survival time, dose: 1.6 mg/kg/injection, schedule: Q## X032 (ip), vehicle: saline): 352 % of control | T/C (endpoint: mean survival time, dose: 1.7 mg/kg/injection, schedule: Q01DX001 (ip), vehicle: saline): 208 % of control | T/C (endpoint: mean survival time, dose: 2.4 mg/kg/injection, schedule: Q## X032 (ip), vehicle: saline): 240 % of control | T/C (endpoint: mean survival time, dose: 2.5 mg/kg/injection, schedule: Q01DX001 (ip), vehicle: saline): 241 % of control

C=C(C(=O)OC1CC2CCC(C1)N2C)c1ccccc1 (stereo not given)
T/C [1]: 92 % of control | T/C [2]: 92 % of control | T/C [3]: 100 % of control | T/C [4]: 107 % of control

COc1cc2c3c(c4ccc(O)cc4c2cc1OC)[C@@H](O)[C@@H]1CCCN1C3
T/C (endpoint: mean survival time, dose: 2.5 mg/kg/injection, schedule: Q01DX009 (ip), vehicle: water): 98 % of control | T/C (endpoint: mean survival time, dose: 5.0 mg/kg/injection, schedule: Q01DX009 (ip), vehicle: water): 113 % of control | T/C (endpoint: mean survival time, dose: 15.0 mg/kg/injection, schedule: Q01DX009 (ip), vehicle: water): 110 % of control | T/C (endpoint: mean survival time, dose: 20.0 mg/kg/injection, schedule: Q01DX009 (ip), vehicle: water): 163 % of control | T/C (endpoint: mean survival time, dose: 20.0 mg/kg/injection, schedule: Q01DX010 (ip), vehicle: water): 113 % of control | T/C (endpoint: mean survival time, dose: 30.0 mg/kg/injection, schedule: Q01DX010 (ip), vehicle: water): 86 % of control

CC(=O)OC(C)(C)/C=C/C(=O)[C@](C)(O)[C@H]1[C@H](O)C[C@@]2(C)[C@@H]3CC=C4[C@@H](CC[C@H](O)C4(C)C)[C@]3(CO)C(=O)C[C@]12C
T/C (endpoint: mean survival time, dose: 0.16 mg/kg/injection, schedule: Q01DX010 (ip), vehicle: saline): 103 % of control | T/C (endpoint: mean survival time, dose: 0.25 mg/kg/injection, schedule: Q01DX010 (ip), vehicle: saline): 100 % of control | T/C (endpoint: mean survival time, dose: 0.38 mg/kg/injection, schedule: Q01DX010 (ip), vehicle: saline): 103 % of control | T/C (endpoint: mean survival time, dose: 0.57 mg/kg/injection, schedule: Q01DX010 (ip), vehicle: saline): 103 % of control

CC1CCCCN1 (stereo not given)
T/C [5]: 103 % of control | T/C [6]: 103 % of control | T/C [7]: 103 % of control | T/C [8]: 96 % of control

CNC(C)C(O)c1ccccc1 (stereo not given)
T/C (endpoint: mean survival time, dose: 37.5 mg/kg/injection, schedule: Q01DX010 (ip), vehicle: saline): 96 % of control | T/C (endpoint: mean survival time, dose: 75.0 mg/kg/injection, schedule: Q01DX010 (ip), vehicle: saline): 92 % of control

CCc1c(CC(=O)O)c2cc(C)ccc2n1Cc1ccc(Cl)cc1
T/C [8]: 107 % of control

O=C(CNC(=O)OCc1ccccc1)NCCCCCCNCCCCCCNC(=O)CNC(=O)OCc1ccccc1
T/C [7]: 100 % of control | T/C [8]: 107 % of control | T/C [9]: 103 % of control | T/C [10]: 100 % of control

COc1ccc2c(c1O)-c1c(OC)c(OC)cc3c1[C@H](C2)[N+](C)(C)CC3
T/C [1]: 96 % of control | T/C [2]: 103 % of control | T/C [3]: 103 % of control | T/C [4]: 100 % of control

C[C@@H]1CCC([C@@H](C)[C@H]2CC[C@H]3[C@@H]4CC[C@H]5C[C@@H](O)CC[C@]5(C)[C@H]4CC[C@]23C)=NC1
T/C [6]: 107 % of control | T/C [7]: 103 % of control | T/C [8]: 100 % of control | T/C [9]: 100 % of control

CCCNc1ncnc2c1cnn2C
T/C (endpoint: mean survival time, dose: 3.13 mg/kg/injection, schedule: Q01DX010 (ip), vehicle: saline): 100 % of control | T/C [5]: 103 % of control and 100 % of control | T/C [6]: 103 % of control and 107 % of control | T/C [7]: 107 % of control and 100 % of control

CC(=O)O[C@]1(C(C)=O)CC[C@H]2[C@@H]3C[C@H](C)C4=CC(=O)C=C[C@]4(C)[C@@]3(F)[C@@H](O)C[C@@]21C
T/C (endpoint: mean survival time, dose: 12.5 mg/kg/injection, schedule: Q01DX010 (sc), vehicle: steriod suspending solution): 103 % of control | T/C (endpoint: mean survival time, dose: 25.0 mg/kg/injection, schedule: Q01DX010 (sc), vehicle: steriod suspending solution): 92 % of control

CCNc1nncs1
T/C [11]: 100 % of control | T/C (endpoint: mean survival time, dose: 16.0 mg/kg/injection, schedule: Q01DX010 (ip), vehicle: saline): 96 % of control

O=C(O)c1cc(C(=O)O)[nH]n1
T/C [12]: 103 % of control | T/C [13]: 103 % of control

C[C@H]1/C(=C/C(=O)OCCN(C)C)CC[C@H]2[C@H]1C(=O)C[C@H]1C(C)(C)[C@@H](O)CC[C@]21C
T/C (endpoint: mean survival time, dose: 4.0 mg/kg/injection, schedule: Q01DX010 (ip), vehicle: saline): 96 % of control | T/C [11]: 113 % of control

OCn1cccn1
T/C [12]: 124 % of control | T/C (endpoint: mean survival time, dose: 125.0 mg/kg/injection, schedule: Q01DX010 (ip), vehicle: water): 121 % of control | T/C [13]: 118 % of control | T/C (endpoint: mean survival time, dose: 200.0 mg/kg/injection, schedule: Q01DX010 (ip), vehicle: water): 86 % of control

CN(C)[C@@H]1C(=O)C(C(N)=O)=C(O)[C@@]2(O)C(=O)C3=C(O)c4c(O)cccc4C[C@H]3C[C@@H]12
T/C (endpoint: mean survival time, dose: 3.75 mg/kg/injection, schedule: Q01DX010 (ip), vehicle: saline): 107 % of control | T/C (endpoint: mean survival time, dose: 7.5 mg/kg/injection, schedule: Q01DX010 (ip), vehicle: saline): 107 % of control | T/C (endpoint: mean survival time, dose: 15.0 mg/kg/injection, schedule: Q01DX010 (ip), vehicle: saline): 100 % of control | T/C (endpoint: mean survival time, dose: 30.0 mg/kg/injection, schedule: Q01DX010 (ip), vehicle: saline): 103 % of control and 100 % of control

CC1CCC(NC(=O)N(CCCl)N=O)CC1 (stereo not given)
T/C (endpoint: median survival time, dose: 1.0 mg/kg/injection, schedule: Q01DX005 (ip), vehicle: other): 111 % of control | T/C (endpoint: median survival time, dose: 4.0 mg/kg/injection, schedule: Q01DX005 (ip), vehicle: other): 255 % of control | T/C (endpoint: median survival time, dose: 8.0 mg/kg/injection, schedule: Q01DX005 (ip), vehicle: other): 255 % of control | T/C (endpoint: median survival time, dose: 16.0 mg/kg/injection, schedule: Q01DX005 (ip), vehicle: other): 115 % of control

SCc1ccccn1
T/C [7]: 107 % of control | T/C [8]: 100 % of control | T/C [9]: 115 % of control | T/C [10]: 115 % of control

O=C1C(=O)N(CN(CCO)CCO)c2ccccc21
T/C [8]: 96 % of control | T/C [9]: 100 % of control | T/C [10]: 100 % of control | T/C [14]: 100 % of control

CS(=O)(=O)OCC(O)C(O)COS(C)(=O)=O (stereo not given)
T/C (endpoint: mean survival time, dose: 20.0 mg/kg/injection, schedule: Q01DX010 (ip), vehicle: saline): 107 % of control | T/C (endpoint: mean survival time, dose: 40.0 mg/kg/injection, schedule: Q01DX010 (ip), vehicle: saline): 107 % of control | T/C (endpoint: mean survival time, dose: 80.0 mg/kg/injection, schedule: Q01DX010 (ip), vehicle: saline): 107 % of control | T/C [9]: 103 % of control | T/C (endpoint: mean survival time, dose: 160.0 mg/kg/injection, schedule: Q01DX010 (ip), vehicle: saline): 117 % of control | T/C [10]: 103 % of control | T/C [14]: 107 % of control | T/C (endpoint: mean survival time, dose: 800.0 mg/kg/injection, schedule: Q01DX010 (ip), vehicle: saline): 89 % of control
